The values below come from PMC7024302, “Ultrashort Cationic Lipopeptides–Effect of N-Terminal Amino Acid and Fatty Acid Type on Antimicrobial Activity and Hemolysis” (Molecules, 2020).

The nature of data set [1]: Determination of peptide hydrophobicity with RP-HPLC (adjusted retention time). The conditions noted are these: 0.1% TFA, 25.0 °C, UV 214 nm, triplicate; for tR’: Table 3, adjusted retention time as hydrophobicity, RP-HPLC C18, linear 10–55% acetonitrile over 60 min. It is filed as physicochemical. Here is the method:
To determine peptide hydrophobicity, the Waters Alliance e2695 system with a Waters 2998 PDA Detector (software-Empower®3) was used. All analyses were carried out on a Phenomenex Luna C18(2) column (3.0 × 100 mm, 5 µm particle size, 100 Å pore size). The peptides were dissolved in water (0.1% TFA, v/v) to obtain a concentration of 1 g/L. UV detection at 214 nm was used, and aliquots (10 µL) were eluted with a linear 10–55% acetonitrile gradient in deionized water over 60 min at 25.0 ± 0.1 °C. The mobile phase flow rate was 0.5 mL/min. Both eluents contained 0.1% (v/v) of TFA. Each peptide sample was analyzed in triplicate.

The test system of another data set is S. aureus ATCC 25923. It is filed as cell-based, Staphylococcus aureus. The conditions noted are these: ATCC 25923, 18 h. The text has this: (§1) The Acinetobacter baumannii ATCC BAA-1605, Candida albicans ATCC 10231, Enterococcus faecium ATCC 700221, Klebsiella aerogenes ATCC 13048 (previously known as Enterobacter aerogenes), Klebsiella pneumoniae ATCC 700603, Pseudomonas aeruginosa ATCC 9027, Staphylococcus aureus ATCC 25923 and MRSA ATCC 33591, were acquired from the American Type Culture Collection (ATCC). Before running the tests, beads with cryo-protected microorganisms were transferred into fresh MHB (BioMaxima, Lublin, Poland) for bacteria or RPMI-1640 for fungi and incubated for 24 h at 37 °C. Then, the culture was seeded on the Mueller-Hinton agar (MHA) plates (BioMaxima, Lublin, Poland) for bacteria or Sabouraud dextrose agar (SDA) plates (BioMaxima, Lublin, Poland) for fungi and incubated as just mentioned. Cell densities for all assays were adjusted spectrophotometrically (Multiskan™ GO Microplate Spectrophotometer, Thermo Fisher Scientific, Vantaa, Finland) at 600 nm for bacteria and at 530 nm for fungi.
(§2) The MICs were determined by broth microdilution method according to the Clinical and Laboratory Standard Institute guidelines. For this purpose initial inoculums of bacteria (5 × 10^5 CFU/mL) in MHB (BioMaxima, Lublin, Poland) and fungi (2 × 10^3 CFU/mL) in RPMI-1640 with 2% D-glucose (Merck, Darmstadt, Germany) prepared with MOPS (pH 7.0 ± 0.1 at 25 °C; Merck, Darmstadt, Germany) were exposed to the ranging concentration of lipopeptides (0.5–256 µg/mL) and incubated at 37 °C for 18 h and 24 h respectively. The experiments were conducted on 96-well microtiter polystyrene plates (Kartell, Italy). The MIC was taken as the lowest peptide concentration at which a noticeable growth of microorganisms was inhibited. All experiments were conducted in triplicate.

Data set [2] concerns S. aureus ATCC 33591 (MRSA). Format: cell-based, Staphylococcus aureus. The conditions noted are these: ATCC 33591, 18 h.
Description: as §1, §2

For another data set, the system named is P. aeruginosa ATCC 9027. Format: cell-based, Pseudomonas aeruginosa. The conditions noted are these: ATCC 9027, 18 h.
Description: as §1, §2

In the next data set the test system is C. albicans ATCC 10231. It is filed as cell-based, Candida albicans.
Description: as §1, §2

Data set [3] concerns human red blood cells (hRBCs). It is filed as cell-based. The conditions noted are these: red cells of human, 1 h. The protocol: The hemolysis assay was performed as described earlier according to the method of Avrahami and Shai. Fresh human red blood cells (hRBCs) with anticoagulant (EDTA) were rinsed three times with a PBS (Merck, Darmstadt, Germany) by centrifugation at 800× g for 10 min and resuspended in PBS. Lipopeptides were serially diluted on 96-well microtiter polystyrene plate and hRBCs were added to reach final volume of 100 µL. Peptide concentration ranged between 0.5 and 256 µg/mL and final hRBCs concentration was 4% (v/v). Controls for zero hemolysis (blank) and 100% hemolysis consisted of hRBCs suspended in PBS and 1% of Triton-X 100 (Merck, Darmstadt, Germany), respectively. The plate was incubated for 1 h at 37 °C and then centrifuged (800× g, 10 min, 4 °C). Subsequently, supernatant was […] to new microtiter plates and absorbance at 540 nm were measured. All experiments were conducted in triplicate. Protocol of the study received approval from the local Bioethics Committee at the Medical University of Gdańsk (NKBBN/262/2019).

For another data set, the system named is E. faecium ATCC 700221. It is filed as cell-based, Enterococcus faecium. The conditions noted are these: ATCC 700221, 18 h.
Description: as §1, §2

Data set [4] relates to K. pneumoniae ATCC 700603. Format: cell-based, Klebsiella pneumoniae. The conditions noted are these: ATCC 700603, 18 h.
Description: as §1, §2

In data set [5] the test system is A. baumannii ATCC BAA-1605. Format: cell-based, Acinetobacter baumannii. The conditions noted are these: ATCC BAA-1605, 18 h.
Description: as §1, §2

The next data set has as its system K. aerogenes ATCC 13048. It is filed as cell-based, Klebsiella aerogenes. The note with it: ATCC 13048, 18 h.
Description: as §1, §2

Converted amounts (≈) assume the structure as drawn. Like-named read-outs stand apart in the source and are kept apart here. Residues, ends and D or L forms follow the SMILES beside them. Where only a bound is given, the exact number is not on record here.

On to `CCCCCCCCCCCC(=O)N[C@@H](CCCNC(=N)N)C(=O)N[C@@H](CCCNC(=N)N)C(N)=O` [compound 3, C12-RR-NH2, reference compound] (HELM PEPTIDE1{[CCCCCCCCCCCC(=O)[*:2]].R.R.[am]}$$$$V2.0), for which the “tR’ (adjusted retention time)” value in data set [1] (Table 1 and b9, measure of hydrophobicity, RP-HPLC, Phenomenex Luna C18(2) 3.0 × 100 mm, 5 µm, linear 10–55% acetonitrile in water over 60 min, 0.5 mL/min, peptide 1 g/L) was 32.58 min. The “tR’” value in data set [1] is recorded as 32.58 min. Also, the “MIC SA” value against S. aureus ATCC 25923 was 32 µg/mL (≈ 62.5 µM). The “MIC S” value in data set [2] was found to be 32 µg/mL (≈ 62.5 µM). The “MIC PA” value in the data set on P. aeruginosa ATCC 9027 worked out at 128 µg/mL (≈ 250 µM). For the same molecule, the “MIC CA” value with C. albicans ATCC 10231 (ATCC 10231, 24 h, pH 7) was found to be 64 µg/mL (≈ 125 µM). The HC50 in data set [3] is over 256 µg/mL. Besides, in the data set on E. faecium ATCC 700221, the “MIC E1” value amounted to 32 µg/mL (≈ 62.5 µM). Also, the “MIC K” value in [4] is >256 (-) µg/mL. Further, the “MIC A” value in data set [5] came to 256 µg/mL (≈ 500 µM). Also, the “MIC E2” value in the data set with K. aerogenes ATCC 13048 is reported as >256 (-) µg/mL.

Take `CCCCCCCCCCCCCC(=O)N[C@@H](CCCNC(=N)N)C(=O)N[C@@H](CCCNC(=N)N)C(N)=O` [compound 4, C14-RR-NH2, reference compound] (HELM PEPTIDE1{[CCCCCCCCCCCCCC(=O)[*:2]].R.R.[am]}$$$$V2.0): the “tR’” value in data set [1] worked out at 39.79 min. Besides, in the data set on S. aureus ATCC 25923, the “MIC SA” value is 8 µg/mL (≈ 14.8 µM). The “MIC S” value in data set [2] was 8 µg/mL (≈ 14.8 µM). For the same molecule, the “MIC PA” value in the data set on P. aeruginosa ATCC 9027 is listed as 32 µg/mL (≈ 59.3 µM). For the same molecule, in the data set with C. albicans ATCC 10231 (ATCC 10231, 24 h, pH 7), the “MIC CA” value is on record as 8 µg/mL (≈ 14.8 µM). Moreover, in data set [3], the HC50 is on record as 68.43 (±1.41) µg/mL. Moreover, the “MIC E1” value against E. faecium ATCC 700221 is 8 µg/mL (≈ 14.8 µM). Also, the “MIC K” value in data set [4] is on record as 256 µg/mL (≈ 474 µM). For the same molecule, the “MIC A” value in data set [5] was 64 µg/mL (≈ 119 µM). The “MIC E2” value against K. aerogenes ATCC 13048 was found to be 256 µg/mL (≈ 474 µM).

`CCCCCCCCCCCCCCCC(=O)N[C@@H](CCCNC(=N)N)C(=O)N[C@@H](CCCNC(=N)N)C(N)=O` [compound 5, C16-RR-NH2, reference compound] (HELM PEPTIDE1{[CCCCCCCCCCCCCCCC(=O)[*:2]].R.R.[am]}$$$$V2.0): the “tR’” value in data set [1] is given as 46.51 min. Further, the “MIC SA” value against S. aureus ATCC 25923 was found to be 8 µg/mL (≈ 14.1 µM). Also, the “MIC S” value in data set [2] was found to be 8 µg/mL (≈ 14.1 µM). Further, in the data set with P. aeruginosa ATCC 9027, the “MIC PA” value turned out to be 16 µg/mL (≈ 28.2 µM). In the data set with C. albicans ATCC 10231 (C. albicans ATCC 10231, RPMI-1640 with 2% D-glucose, MOPS pH 7.0, 2 × 10^3 CFU/mL, 0.5–256 µg/mL, 37 °C, 24 h, triplicate), the “MIC CA” value is reported as 4 µg/mL (≈ 7.04 µM). The HC50 in [3] is listed as 22.91 (±1.18) µg/mL. Moreover, in the data set on E. faecium ATCC 700221, the “MIC E1” value is 8 µg/mL (≈ 14.1 µM). Besides, in data set [4], the “MIC K” value is on record as 32 µg/mL (≈ 56.4 µM). Besides, the “MIC A” value in data set [5] is recorded as 32 µg/mL (≈ 56.4 µM). Moreover, in the data set on K. aerogenes ATCC 13048, the “MIC E2” value is given as 32 µg/mL (≈ 56.4 µM).

Consider `CCCCCCCCCCCCCCCCCC(=O)N[C@@H](CCCNC(=N)N)C(=O)N[C@@H](CCCNC(=N)N)C(N)=O` [compound 6, C18-RR-NH2, reference compound] (HELM PEPTIDE1{[CCCCCCCCCCCCCCCCCC(=O)[*:2]].R.R.[am]}$$$$V2.0), for which, in [1], the “tR’” value was found to be 53.39 min. Further, the “MIC SA” value in the data set with S. aureus ATCC 25923 is on record as 16 µg/mL (≈ 26.9 µM). Moreover, the “MIC S” value in data set [2] was found to be 16 µg/mL (≈ 26.9 µM). Besides, the “MIC PA” value against P. aeruginosa ATCC 9027 is given as 64 µg/mL (≈ 107 µM). Further, in the data set on C. albicans ATCC 10231 (ATCC 10231, 24 h, pH 7), the “MIC CA” value was 4 µg/mL (≈ 6.71 µM). In addition, the HC50 in data set [3] was 25.19 (±0.67) µg/mL. Further, the “MIC E1” value against E. faecium ATCC 700221 is recorded as 8 µg/mL (≈ 13.4 µM). Besides, in data set [4], the “MIC K” value amounted to 16 µg/mL (≈ 26.9 µM). Moreover, the “MIC A” value in [5] worked out at 32 µg/mL (≈ 53.7 µM). Further, in the data set on K. aerogenes ATCC 13048, the “MIC E2” value amounted to 16 µg/mL (≈ 26.9 µM).

For the molecule `CCCCCCCCCCCCCC(=O)N[C@@H](C)C(=O)N[C@@H](CCCNC(=N)N)C(=O)N[C@@H](CCCNC(=N)N)C(N)=O` [compound 10, C14-ARR-NH2] (HELM PEPTIDE1{[CCCCCCCCCCCCCC(=O)[*:2]].A.R.R.[am]}$$$$V2.0), the “tR’” value in [1] is given as 40.92 min. Also, the “MIC SA” value against S. aureus ATCC 25923 was found to be 8 µg/mL (≈ 13.1 µM). Further, the “MIC S” value in data set [2] was 16 µg/mL (≈ 26.2 µM). For the same molecule, the “MIC PA” value against P. aeruginosa ATCC 9027 is reported as 32 µg/mL (≈ 52.4 µM). Also, the “MIC CA” value in the data set with C. albicans ATCC 10231 (ATCC 10231, 24 h, pH 7) amounted to 16 µg/mL (≈ 26.2 µM). Further, in data set [3], the HC50 is 41.08 (±0.62) µg/mL. For the same molecule, in the data set with E. faecium ATCC 700221, the “MIC E1” value is 8 µg/mL (≈ 13.1 µM). Besides, the “MIC K” value in [4] is on record as 256 µg/mL (≈ 419 µM). In addition, in [5], the “MIC A” value is 32 µg/mL (≈ 52.4 µM). Moreover, the “MIC E2” value against K. aerogenes ATCC 13048 is 256 µg/mL (≈ 419 µM).
